Data on 2 molecules can be found in US20260151316A1, “FIBRILLIN PRODUCTION PROMOTER, COSMETIC COMPOSITION OR SKIN TOPICAL AGENT, ORALLY ADMINISTERED AGENT, AND ELASTIN FIBER PRODUCTION PROMOTER” (YAMASA CORPORATION, priority 2022, published 2026).

Test [1] deals with Fibrillin-1 (FBN-1) mRNA in normal human fibroblasts. In words: FBN-1 mRNA expression by real time PCR in fibroblasts treated with culture supernatant from three-dimensional cultured epidermis. Format: cell-based. The conditions noted are these: CMP, 2Na 1.0 and 2.0 (w/v %) applied to three-dimensional cultured epidermis; supernatant on NHDF; GAPDH as control. How it is done:
The mRNA expression level of Fibrillin 1(FBN1 ), a factor related to elastin synthesis, was quantified by real-time PCR. Three-dimensional cultured epidermis (LabCyte EPI MODEL 24; manufactured by J TEC) was set in a 24-well plate to which 500 μL of the attached assay medium was added, and conditioned overnight at 37° C. 50 μL of sample-containing PBS (−) was applied from the stratum corneum side and cultured for 24 hours. After removing the sample-containing PBS (−), the plate was washed with PBS (−). The medium was replaced with a fresh medium, 50 μL of sample-containing PBS (−) was newly applied from the stratum corneum side, and further cultured for 48 hours. After culturing, the culture supernatant was collected. The concentrations of CMP, 2Na in the respective samples were 0, 1.0, and 2.0 (w/v %), respectively. Normal human fibroblasts were treated with the culture supernatant by the same method as that of Example 1. RNA was extracted from NHDF using RNeasy Mini Kit (QIAGEN), and mRNA expression analysis for Fibrillin-1 (FBN-1) was performed by real time PCR ([…]). Glyceraldehyde 3-phosphate dehydrogenase (GAPDH) was used as an endogenous control.
(In qPCR the cycle at which signal appears reflects the starting amount.)

Test [2] has as its system fibrillin-1 production in normal human fibroblasts (NHDF). As to the kind of experiment: Fibrillin-1 quantification by ELISA, direct treatment of normal human fibroblasts with sample. The format is cell-based. The conditions noted are these: Example 1, FIG. 1 versus FIG. 2 (direct treatment and K-CM). As for the experimental part:
Normal human fibroblasts (NHDF; Kurabo) were seeded in a 96-well plate at a density of 2.55×10^4 cells/well/100 μL and cultured at 37° C. for 24 hours. The medium was then replaced with 100 μL of media (HuMedia-KG2; Kurabo) adjusted to contain 0, 2.5, 5 (mM) (i.e., 0, 0.0918, 0.184 (w/v %) ) of CMP, 2Na and 0, 2.5, 5 (MM) (i.e., 0, 0.092, 0.184 (w/v %) ) of UMP, 2Na, and cultured for 24 hours.
The culture supernatant from normal human fibroblasts was collected and an amount of fibrillin-1 was quantified by ELISA. The protein amount of the culture supernatant was also measured by BCA protein assay.
A general note: In an ELISA, binding on a coated surface is turned into a signal by an enzyme label.

For test [3], the system named is elastin fibers in freshly extracted human skin. As to the kind of experiment: Ex vivo evaluation test using freshly extracted human skin, elastica-van Gieson staining of elastin fibers. The following applies: abdominal skin, CMP, 2Na 1.0 and 2.0 (w/v %) applied from the stratum corneum side, 72 hours. How it is done: Abdominal skin tissue was used, which was taken from a patient during cosmetic surgery, after obtaining informed consent for use in research. The extracted skin was placed in a culture plate supplemented with 1.3 ml of D-MEM/Ham's F-12 medium, and conditioned overnight at 37° C. in 5% CO2. An appropriate amount of PBS (−) containing a given concentration of each sample was applied from the stratum corneum side, and further cultured for 24 hours. The treatment was continued for a total of 72 hours while replacing the sample and medium with fresh ones every 24 hours. The concentrations of CMP, 2Na in the respective samples were 0, 1.0, and 2.0 (w/v %). After the cultured skin tissue was fixed according to a standard method, skin tissue sections were prepared, elastin fibers were stained with elastica-van Gieson stain, and observed under a microscope.

For `Nc1ccn([C@@H]2O[C@H](COP(=O)(O)O)[C@@H](O)[C@H]2O)c(=O)n1` [cytidylic acid], the “expression level of FBN-1 mRNA” value in test [1] is recorded as “increased, depending on the concentration”. Also, the “effect of promoting fibrillin production, cytidylic acid treatment compared with uridylic acid treatment” value in test [2] is “comparable”. Moreover, the “density of elastin fibers (elastica-van Gieson staining)” value in test [3] is “tended to result in denser elastin fibers”.
Regarding `O=c1ccn([C@@H]2O[C@H](COP(=O)(O)O)[C@@H](O)[C@H]2O)c(=O)[nH]1` [uridylic acid], the “effect of promoting fibrillin production, cytidylic acid treatment compared with uridylic acid treatment” value in test [2] is “comparable”.
